Reference: patent US10781184B2, “Substituted benzazinones as antibacterial compounds” (GlaxoSmithKline Intellectual Property Development Limited, priority 2015, dated 2020)
Converted amounts (≈) assume the structure as drawn. Structures can show the parent of a compound that is named as a salt. Where two headings read alike, the source gives them in different places.

Tests used:
Assay in all cases: Minimum Inhibitory Concentration Assay (broth microdilution, CLSI)
Format in all cases: cell-based
K. pneumoniae 1161486 = system: K. pneumoniae 1161486
Procedure: (§1) Methods for dilution Antimicrobial Susceptibility TestS for Bacteria that Grow Aerobically; Approved Standard-Ninth Edition; M7-A9, Vol. 32 No. 2, Clinical and Laboratory Standards Institute, Wayne, Pa.; January 2012.
(§2) Performance Standards for Antimicrobial Susceptibility Testing; Twenty-Second Informational Supplement; M100-S22 Vol. 32 No. 3; Clinical and Laboratory Standards Institute, Wayne, Pa., January 2012.
(§3) Broth microdilution was performed in accordance with the CLSI recommended procedures for aerobic bacteria [CLSI, 2012].
(§4) Comparator compound stock solutions were prepared as recommended by CLSI [CLSI, 2012]. The stock solutions of novel GSK compounds were prepared at 512 mcg/mL by dissolving the compounds in dimethyl sulfoxide (DMSO) and diluting 1:10 with sterile water. The 512 mcg/mL stock was further serially diluted in the recommended broth media for the organisms being tested. Final DMSO concentration in test wells was less than 1%.
(§5) Microtitre plates were prepared using the Microlab STAR™ (Hamilton Co., Reno, Nev.) to add media (50 μL) and the Microlab AT Plus system (Hamilton Co., Reno, Nev.) to serially dilute the compounds (final concentration range 0.125 to 128 mcg/mL) and to add inoculum. A positive growth control well containing medium and the test isolate was included on each microtitre plate. Ten microliters of the test medium from the positive growth control well was plated to determine the purity of each test isolate. A microtitre mirror reader (Cooke Instruments, Ltd., England) was used to assist in determining the microdilution MIC endpoints. The MIC was determined as the lowest concentration of compound that inhibited visible growth of the organism.

P. aeruginosa PA01 = settings: Pseudomonas aeruginosa
Procedure: as §1, §2, §3, §4, §5

E. coli 7623 = system: E. coli 7623
Procedure: as §1, §2, §3, §4, §5

[1] = Klebsiella pneumoniae, strain 1161486, broth microdilution, read-out: K. pneumoniae 1161486 MIC
[2] = strain PA01, broth microdilution, read-out: P. aeruginosa PA01 MIC
[3] = Escherichia coli, strain 7623, broth microdilution, read-out: E. coli 7623 MIC

Row | Structure (SMILES) | MIC (K. pneumoniae 1161486; [1]) [µg/mL] | MIC (P. aeruginosa PA01; [2]) [µg/mL] | MIC (E. coli 7623; [3]) [µg/mL] | MIC (K. pneumoniae 1161486; Klebsiella pneumoniae, 1161486, read-out: K. pneumoniae 1161486 MIC (ug/mL)) [µg/mL] | MIC (P. aeruginosa PA01; PA01, read-out: P. aeruginosa PA01 MIC (ug/mL)) [µg/mL] | MIC (E. coli 7623; Escherichia coli, 7623, read-out: E. coli 7623 MIC (ug/mL)) [µg/mL]
1 | CN(C)c1ccc(-c2ccc3c(=O)n(CC[C@](C)(C(=O)NO)S(C)(=O)=O)ccc3c2)cc1 [Example 61, (2R)-4-{6-[4-(dimethylamino)phenyl]-1-oxo-1,2-dihydroisoquinolin-2-yl}-N-hydroxy-2-methanesulfonyl-2-methylbutanamide] | 1 (≈ 2.19 µM) | > 32 | < 0.03 |  |  | 
2 | C[C@@](CCn1cnc2cc(-c3cccc(F)c3F)ccc2c1=O)(C(=O)NO)S(C)(=O)=O [Example 6, (R)-4-(7-(2,3-difluorophenyl)-4-oxoquinazolin-3(4H)-yl)-N-hydroxy-2-methyl-2-(methylsulfonyl)butanamide] | 0.125 (≈ 0.277 µM) | 0.5 (≈ 1.11 µM) | ≤ 0.032 |  |  | 
3 | Cc1cnc(-c2ccc3c(=O)n(CC[C@](C)(C(=O)NO)S(C)(=O)=O)ccc3c2)s1 [Example 58, (2R)—N-hydroxy-2-methanesulfonyl-2-methyl-4-[6-(5-methyl-1,3-thiazol-2-yl)-1-oxo-1,2-dihydroisoquinolin-2-yl]butanamide] | 1 (≈ 2.3 µM) | 4 (≈ 9.18 µM) | 0.063 (≈ 0.145 µM) |  |  | 
4 | C[C@@](CCn1cnc2cc(-c3ccc(CCO)cc3)ccc2c1=O)(C(=O)NO)S(C)(=O)=O [Example 44, (2R)—N-hydroxy-4-{7-[4-(2-hydroxyethyl)phenyl]-4-oxo-3,4-dihydroquinazolin-3-yl}-2-methanesulfonyl-2-methylbutanamide] | 1 (≈ 2.18 µM) | 1 (≈ 2.18 µM) | 0.125 (≈ 0.272 µM) |  |  | 
5 | COCc1ccc(-c2ccc3c(=O)n(CC[C@](C)(C(=O)NO)S(C)(=O)=O)cnc3c2)cc1 [Example 47, (2R)—N-hydroxy-2-methanesulfonyl-4-{7-[4-(methoxymethyl)phenyl]-4-oxo-3,4-dihydroquinazolin-3-yl}-2-methylbutanamide] | 0.125 (≈ 0.272 µM) | 0.5 (≈ 1.09 µM) | 0.063 (≈ 0.137 µM) |  |  | 
6 | C[C@@](CCn1cnc2cc(-c3ccc(CCO)cc3F)c(F)cc2c1=O)(C(=O)NO)S(C)(=O)=O [Example 27, (2R)-4-{6-fluoro-7-[2-fluoro-4-(2-hydroxyethyl)phenyl]-4-oxo-3,4-dihydroquinazolin-3-yl}-N-hydroxy-2-methanesulfonyl-2-methylbutanamide] | 1 (≈ 2.02 µM) | 2 (≈ 4.04 µM) | < 0.03 |  |  | 
7 | C[C@@](CCn1cnc2cc(-c3cc(F)ccc3F)ccc2c1=O)(C(=O)NO)S(C)(=O)=O [Example 7, (R)-4-(7-(2,5-difluorophenyl)-4-oxoquinazolin-3(4H)-yl)-N-hydroxy-2-methyl-2-(methylsulfonyl)butanamide] | 0.25 (≈ 0.554 µM) | 2 (≈ 4.43 µM) | 0.06 (≈ 0.133 µM) |  |  | 
8 | CC(=O)OCCc1ccc(-c2cc3ncn(CC[C@](C)(C(=O)NO)S(C)(=O)=O)c(=O)c3cc2F)cc1 [Example 34, 2-(4-{6-fluoro-3-[(3R)-3-(hydroxycarbamoyl)-3-methanesulfonyl-3-methylpropyl]-4-oxo-3,4-dihydroquinazolin-7-yl}phenyl)ethyl acetate] | 0.25 | 4 | < 0.03 |  |  | 
9 | C[C@@](CCn1cnc2cc(-c3ccc(OC(F)F)cc3)ccc2c1=O)(C(=O)NO)S(C)(=O)=O [Example 5, (R)-4-(7-(4-(difluoromethoxy)phenyl)-4-oxoquinazolin-3(4H)-yl)-N-hydroxy-2-methyl-2-(methylsulfonyl)butanamide] | 0.06 (≈ 0.125 µM) | 2 (≈ 4.15 µM) | ≤ 0.03 |  |  | 
10 | C[C@@](CCn1cnc2cc(-c3ccc(CN4CCOCC4)cc3)c(F)cc2c1=O)(C(=O)NO)S(C)(=O)=O [Example 20, (R)-4-(6-fluoro-7-(4-(morpholinomethyl)phenyl)-4-oxoquinazolin-3(4H)-yl)-N-hydroxy-2-methyl-2-(methylsulfonyl)butanamide hydrochloride] |  |  |  | 0.25 | 4 | 0.125
11 | CN(C)c1ncc(-c2ccc3c(=O)n(CC[C@](C)(C(=O)NO)S(C)(=O)=O)ccc3c2)cn1 [Example 63, (2R)-4-{6-[2-(dimethylamino)pyrimidin-5-yl]-1-oxo-1,2-dihydroisoquinolin-2-yl}-N-hydroxy-2-methanesulfonyl-2-methylbutanamide] | 1 (≈ 2.18 µM) | 4 (≈ 8.7 µM) | 0.125 (≈ 0.272 µM) |  |  | 
12 | CN(C)c1ccc(-c2ccc3c(=O)n(CC[C@](C)(C(=O)NO)S(C)(=O)=O)cc(F)c3c2)cn1 [Example 90, (2R)-4-{6-[6-(dimethylamino)pyridin-3-yl]-4-fluoro-1-oxo-1,2-dihydroisoquinolin-2-yl}-N-hydroxy-2-methanesulfonyl-2-methylbutanamide] | 1 (≈ 2.1 µM) | 32 (≈ 67.2 µM) | 0.063 (≈ 0.132 µM) |  |  | 
13 | C[C@@](CCn1cnc2cc(-c3ccc(CN4CCOCC4)cc3F)c(F)cc2c1=O)(C(=O)NO)S(C)(=O)=O [Example 26, (2R)-4-(6-fluoro-7-{2-fluoro-4-[(morpholin-4-yl)methyl]phenyl}4-oxo-3,4-dihydroquinazolin-3-yl)-N-hydroxy-2-methanesulfonyl-2-methylbutanamide] | 0.5 (≈ 0.908 µM) | 4 (≈ 7.27 µM) | 0.125 (≈ 0.227 µM) |  |  | 
14 | CCONCc1ccc(-c2ccc3c(=O)n(CC[C@](C)(C(=O)NO)S(C)(=O)=O)cnc3c2)c(F)c1 [Example 51, (2R)-4-(7-{4-[(ethoxyamino)methyl]-2-fluorophenyl}-4-oxo-3,4-dihydroquinazolin-3-yl)-N-hydroxy-2-methanesulfonyl-2-methylbutanamide] | 0.5 (≈ 0.987 µM) | 2 (≈ 3.95 µM) | 0.125 (≈ 0.247 µM) |  |  | 
15 | C[C@@](CCn1cnc2cc(-c3ccc(CN4CCOCC4)cc3F)ccc2c1=O)(C(=O)NO)S(C)(=O)=O [Example 37, (2R)-4-(7-{2-fluoro-4-[(morpholin-4-yl)methyl]phenyl}-4-oxo-3,4-dihydroquinazolin-3-yl)-N-hydroxy-2-methanesulfonyl-2-methylbutanamide] | 0.5 (≈ 0.939 µM) | 2 (≈ 3.76 µM) | 0.063 (≈ 0.118 µM) |  |  | 
16 | C[C@@](CCn1ccc2cc(-c3ccc(C#N)cc3F)ccc2c1=O)(C(=O)NO)S(C)(=O)=O [Example 59, (2R)-4-[6-(4-cyano-2-fluorophenyl)-1-oxo-1,2-dihydroisoquinolin-2-yl]-N-hydroxy-2-methanesulfonyl-2-methylbutanamide] | 0.125 (≈ 0.273 µM) | 0.5 (≈ 1.09 µM) | 0.063 (≈ 0.138 µM) |  |  | 
17 | C[C@@](CCn1cc(F)c2cc(-c3ccccc3)ccc2c1=O)(C(=O)NO)S(C)(=O)=O [Example 84, (2R)-4-(4-fluoro-1-oxo-6-phenyl-1,2-dihydroisoquinolin-2-yl)-N-hydroxy-2-methanesulfonyl-2-methylbutanamide] | 0.25 (≈ 0.578 µM) | 4 (≈ 9.25 µM) | 0.5 (≈ 1.16 µM) |  |  | 
18 | C[C@@](CCn1ccc2cc(-c3ccc4c(c3)COC4)ccc2c1=O)(C(=O)NO)S(C)(=O)=O [Example 57, (2R)-4-[6-(1,3-dihydro-2-benzofuran-5-yl)-1-oxo-1,2-dihydroisoquinolin-2-yl]-N-hydroxy-2-methanesulfonyl-2-methylbutanamide] | 0.25 (≈ 0.548 µM) | 2 (≈ 4.38 µM) | 0.063 (≈ 0.138 µM) |  |  | 
19 | CN(C)Cc1ccc(-c2ccc3c(=O)n(CC[C@](C)(C(=O)NO)S(C)(=O)=O)cc(F)c3c2)cc1 [Example 85, (2R)-4-(6-{4-[(dimethylamino)methyl]phenyl}-4-fluoro-1-oxo-1,2-dihydroisoquinolin-2-yl)-N-hydroxy-2-methanesulfonyl-2-methylbutanamide] | 1 (≈ 2.04 µM) | 4 (≈ 8.17 µM) | 0.5 (≈ 1.02 µM) |  |  | 
